The results in this text go back to article PMC10582582 (Saudi Pharmaceutical Journal : SPJ, 2023).

The assay concerns WI-38. As to the kind of experiment: In vitro cytotoxicity against normal cell line WI-38. The settings on record: Homo sapiens, WI-38, read-out: IC50 WI38. The assay is classed as cell-based.
By IC50 is commonly meant the midpoint of a concentration-inhibition curve. In the case of `CN1CCC2(CC1)C/C(=N\N=C\c1ccc(N(C)C)cc1)c1ccccc1O2` [Compound 4b, N,N-Dimethyl-4-((E)-{(E)-[1′-methylspiro(chroman-2,4′-piperidin)-4-ylidene]hydrazono}methyl)aniline], the IC50 came out at 60.4 ± 3.7 µM. As to `CN(C)C/C=C/C(=O)Nc1cc2c(Nc3ccc(F)c(Cl)c3)ncnc2cc1O[C@H]1CCOC1` [Afatinib, reference compound], the IC50 stood at 49.5 ± 2.5 µM. As to `CN1CCC2(CC1)C/C(=N\N=C\c1ccc(O)cc1)c1ccccc1O2` [Compound 4d, 4-((E)-{(E)-[1′-Methylspiro(chroman-2,4′-piperidin)-4-ylidene]hydrazono}methyl)phenol], the IC50 was determined as 33.3 ± 2.3 µM. In the case of `CCN1CCC2(CC1)C/C(=N\N=C\c1ccc(N(C)C)cc1)c1ccccc1O2` [Compound 4c, 4-((E)-{(E)-[1′-Ethylspiro(chroman-2,4′-piperidin)-4-ylidene]hydrazono}methyl)-N,N-dimethylaniline] it was 55.3 ± 3.3 µM; in that of `CN1CCC2(CC1)C/C(=N\N=C\c1ccc(Cl)cc1)c1ccccc1O2` [Compound 4a, (E)-4-[(E)-(4-Chlorobenzylidene)hydrazono]-1′-methylspiro(chroman-2,4′-piperidine)], 75.7 ± 4.3 µM.
